Drawing on PubChem BioAssay AID588647 (Sanford-Burnham Center for Chemical Genomics, 2011), this text covers IC50 for 29 molecules.

“And” between values parts separate entries of the source, which are not always exact repeats. Equal values may be shown once. The source made the active and inactive calls. The rule behind the calls is not given here.

In the test the target is intestinal alkaline phosphatase (Mus musculus). Put plainly: mouse IAP inhibition by analogs – biochemical, luminescence, set 2, SAR follow-up (AID 588647). To be noted: purified mouse IAP, luminescent substrate read-out.
By IC50 is commonly meant the concentration that inhibits the measured activity by half. Regarding `O=c1[nH]c2ccc(S(=O)(=O)NCCc3ccc4c(c3)OCO4)cc2o1`, the IC50 is > 100 µM (inactive). On to `O=C(N/N=C/c1ccccc1F)c1ccccc1OCc1ccccc1`, for which the IC50 is > 100 µM (inactive). As to `CCOc1ccc(CNC(=O)C2CCCN(S(=O)(=O)c3ccc4[nH]c(=O)oc4c3)C2)cc1OC` (centres undefined), the IC50 is > 100 µM (inactive). `O=C(NN=Cc1ccccc1F)c1ccc(O)cc1`: the IC50 was > 100 µM (inactive). The figure for `COc1ccc(NC(=O)CCCNS(=O)(=O)c2ccc3[nH]c(=O)oc3c2)c(OC)c1` is 6.3 µM. Consider `CC(C)Oc1ccc(CNC(=O)C2CCCN(S(=O)(=O)c3ccc4[nH]c(=O)oc4c3)C2)cc1` (centres undefined), for which the IC50 was > 100 µM (inactive). `Cc1ccc(C)c(NC(=O)CCNS(=O)(=O)c2ccc3c(c2)CCC3)c1`: the IC50 was > 100 µM (inactive). Under `COc1cccc(CNC(=O)CNS(=O)(=O)c2ccc3[nH]c(=O)oc3c2)c1` stands 1.8 µM and 0.73 µM; under `Cc1ccc(NC(=O)CCNS(=O)(=O)c2ccc3c(c2)oc(=O)n3C)c(C)c1`, > 100 µM (inactive); under `COc1cccc(NC(=O)CCNS(=O)(=O)c2ccc3c(c2)oc(=O)n3C)c1`, > 100 µM (inactive). Regarding `Cc1ccc(C)c(NC(=O)C2CCCN(S(=O)(=O)c3ccc4c(c3)oc(=O)n4C)C2)c1` (centres undefined), the IC50 was > 100 µM (inactive). For the molecule `CC(C)c1ccc(/C=N/NC(=O)c2cc(O)c(O)c(O)c2)cc1`, the IC50 is 57.5 µM. Take `COc1ccc(CNS(=O)(=O)c2ccc3[nH]c(=O)oc3c2)c(OC)c1`: the IC50 is 89 µM. Under `O=C(N/N=C/c1c(Cl)cccc1Cl)c1cc(O)c(O)c(O)c1` stands 11.1 µM.

As to `COc1cccc(/C=N/NC(=O)c2cc(O)c(O)c(O)c2)c1O`, the concentration for half-maximal inhibition (IC50) was 4.01 µM. Under `COc1cccc(CNC(=O)CCNS(=O)(=O)c2ccc3[nH]c(=O)oc3c2)c1` stands 0.82 µM and 34 µM and > 100 µM (inactive); under `O=C(CCS(=O)(=O)Nc1ccc2[nH]c(=O)oc2c1)NCc1ccccc1Cl`, 86 µM. Take `O=C(CCNS(=O)(=O)c1ccc2ccccc2c1)NCCc1ccc2c(c1)OCO2`: the IC50 was > 100 µM (inactive). In the case of `O=c1[nH]c2ccc(S(=O)(=O)NCc3ccc4c(c3)OCO4)cc2o1`, the IC50 is > 100 µM (inactive). With `COc1ccc(CNC(=O)CNS(=O)(=O)c2ccc3[nH]c(=O)oc3c2)cc1`, the IC50 is 0.89 µM and 2.1 µM and 2.5 µM. The figure for `COc1ccc(OC)c(NC(=O)C2CCCN(S(=O)(=O)c3ccc4c(c3)oc(=O)n4C)C2)c1` (centres undefined) is > 100 µM (inactive).

As to `O=c1[nH]c2ccc(S(=O)(=O)Nc3ccc4c(c3)OCO4)cc2o1`, the IC50 was > 100 µM (inactive). Regarding `CSc1cccc(NC(=O)C2CCCN(S(=O)(=O)c3ccc4c(c3)oc(=O)n4C)C2)c1` (centres undefined), the IC50 was > 100 µM (inactive). As to `Cc1ccc(C)c(NC(=O)CCNS(=O)(=O)c2ccc3ccccc3c2)c1`, the half-inhibitory concentration (IC50) was 78 µM. On to `CCOc1cc(C(=O)N/N=C/c2ccccc2F)cc(OCC)c1OCC`, for which the IC50 was > 100 µM (inactive). As to `O=C(N/N=C/c1c(F)cccc1Cl)c1ccc(O)cc1O`, the IC50 is > 100 µM (inactive). `COc1cccc(CNS(=O)(=O)c2ccc3[nH]c(=O)oc3c2)c1`: the half-inhibitory concentration (IC50) was 40 µM. As for `O=C(CCCNS(=O)(=O)c1ccc2[nH]c(=O)oc2c1)NCc1cccc(F)c1`, the IC50 is 2.8 µM and 13 µM. As for `COc1ccc(CCNC(=O)CCCNS(=O)(=O)c2ccc3[nH]c(=O)oc3c2)cc1OC`, the concentration for half-maximal inhibition (IC50) was 1.5 µM.
